# Laboratory results published in paper PMC6277767, “Broad and Region-Specific Impacts of the Synthetic Cannabinoid CP 55,940 in Adolescent and Adult Female Mouse Brains” (Frontiers in Molecular Neuroscience, 2018).
# Tested on: CD1 female mouse brain lipidome
# Assay: Brain-region lipid levels (HPLC/MS/MS lipidomics) 2 h after single i.p. 3 mg/kg CP 55,940 vs vehicle
# Type: in vivo
# Parameters: N-arachidonoyl phenylalanine level, Mean / N-stearoyl tryptophan level, Mean / N-stearoyl proline level, Mean / N-stearoyl leucine level, Mean / N-stearoyl phenylalanine level, Mean / N-stearoyl serine level, Mean / N-stearoyl methionine level, Mean: unit: moles per gram
# Conditions: hypothalamus
# Protocol: The Bloomington Institutional Animal Care and Use Committee of Indiana University reviewed and approved the animal procedures. Female mice from the CD1 strain were utilized to match our study examining THC’s effects on the brain lipidome ([Leishman et al., 2018]). Mice were given a single i.p. injection of either 3 mg/kg CP or 1:1:18 cremophor:ethanol:saline vehicle (please refer to the section “3 mg/kg CP Is Relevant for Synthetic Cannabinoid Abuse and Has Stronger Effects on the Female Mouse Brain Lipidome During Adolescence” for a justification of dose and use of female mice). Three different age groups were given injections: PND 35 and PND 50 adolescents, and adult mice (PND 113). At least eight mice in each age group received CP and at least eight received vehicle. Matching the THC study time course ([Leishman et al., 2018]), mice were sacrificed via rapid decapitation 2 h after injection. Brains were immediately removed and flash-frozen in liquid nitrogen, and then stored at -80°C until dissections were performed. Brains were dissected on an ice-cold dissection plate into the following regions: STR, HIPP, CER, THAL, CTX, HYP, MID, and STEM. These abbreviations for these brain areas will be used exclusively when discussing the results generated by these specific dissections. Each dissected area was immediately placed in liquid nitrogen and then stored at -80°C until used for lipid extraction.
# Tissue extracts were performed as previously described ([Bradshaw et al., 2006]; [Stuart et al., 2013]; [Raboune et al., 2014]; [Leishman et al., 2016a],[b], [2017], [2018]). First, samples were shock frozen in liquid nitrogen, weighed, and transferred to a centrifuge tube. The mass of the largest sample was multiplied by 50 to determine how many milliliters of HPLC-grade methanol (Fisher, Fair Lawn, NJ, United States) to add. Then, samples were spiked with 500 pmol deuterium-labeled NAGly (d8NAGly; Cayman Chemical, Ann Arbor, MI, United States). Samples were placed on ice in darkness for 2 h then individually homogenized and centrifuged at 19,000 × g for 20 min at 20°C. Supernatants were diluted with HPLC water (purified in house) to make a solution of 75% water, 25% supernatant. Lipids were partially purified on C18 solid phase extraction columns (Agilent, Palo Alto, CA, United States). A series of four elutions with 1.5 mL of 60%, 75%, 85%, and 100% methanol were collected ([Stuart et al., 2013]; [Leishman et al., 2016a],[b], [2018]).
# As previously described ([Bradshaw et al., 2006]; [Tan et al., 2006]; [Smoum et al., 2010]; [Stuart et al., 2013]; [Tortoriello et al., 2013]; [Raboune et al., 2014]; [Leishman et al., 2016a],[b], [2017], [2018]), samples were analyzed using an Applied Biosystems API 3000 triple quadrupole mass spectrometer with electrospray ionization (Foster City, CA, United States). Using an Agilent XDB-C18 reversed phase analytical column and optimized mobile phase gradients, 20 μL from each elution were chromatographed. Two Shimadzu 10ADvp pumps (Columbia, MD, United States) provided the pressure for gradient elution. Mobile phase A: 20% methanol, 80% water (v/v) and 1 mM ammonium acetate (Sigma, St. Louis, MO, United States). Mobile phase B: 100% methanol, 1 mM ammonium acetate. Every method run began with 0% mobile phase B, reached 100% mobile phase B flowing at 0.2 mL/min, and gradually returned to 0% mobile phase B.
# This screening library will be referred to as the lipidome when discussing data from this study. HPLC/MS/MS data were analyzed using Analyst software (Applied Biosystems) ([Bradshaw et al., 2006]; [Tan et al., 2006]; [Stuart et al., 2013]; [Tortoriello et al., 2013]; [Raboune et al., 2014]; [Leishman et al., 2016a],[b], [2017], [2018]). Chromatograms (Supplementary Figure 3) were generated by determining the retention time of analytes from the analytical column with a [M-1] or [M+1] parent peak and a fragmentation peak corresponding to the programmed values. […]
# [1] = PND 50 female mice, 3mg/kg CP 55,940
# [2] = PND 35 adolescent female mice, 3 mg/kg
smiles,measurement,setting,value
"CCCCCCC(C)(C)c1ccc([C@@H]2C[C@H](O)CC[C@H]2CCCO)c(O)c1 [CP 55,940]","N-docosahexaenoyl methionine level, Mean",[1],BDL
same,"N-docosahexaenoyl phenylalanine level, Mean",[1],PISSR
same,"N-docosahexaenoyl proline level, Mean",[1],BDL
same,"N-docosahexaenoyl serine level, Mean",[1],PISSR
same,"N-docosahexaenoyl tryptophan level, Mean",[1],BDL
same,"N-docosahexaenoyl tyrosine level, Mean",[1],BDL
same,"N-docosahexaenoyl valine level, Mean",[1],BDL
same,"N-linoleoyl GABA level, Mean",[1],PISSR
same,"N-linoleoyl alanine level, Mean",[1],3.81E-13
same,"N-linoleoyl ethanolamine level, Mean",[1],3.47E-11
same,"N-linoleoyl glycine level, Mean",[1],1.12E-13
same,"N-linoleoyl leucine level, Mean",[1],PISSR
same,"N-linoleoyl methionine level, Mean",[1],BDL
same,"N-linoleoyl phenylalanine level, Mean",[1],PISSR
same,"N-linoleoyl proline level, Mean",[1],BDL
same,"N-linoleoyl serine level, Mean",[1],1.7E-10
same,"N-linoleoyl tryptophan level, Mean",[1],BDL
same,"N-linoleoyl tyrosine level, Mean",[1],BDL
same,"N-linoleoyl valine level, Mean",[1],BDL
same,"N-nervonoyl valine level, Mean",[1],BDL
same,"N-oleoyl GABA level, Mean",[1],1.97E-12
same,"N-oleoyl alanine level, Mean",[1],2.61E-12
same,"N-oleoyl dopamine level, Mean",[1],BDL
same,"N-oleoyl ethanolamine level, Mean",[1],8.36E-11
same,"N-oleoyl glycine level, Mean",[1],5.38E-13
same,"N-oleoyl leucine level, Mean",[1],3.54E-13
same,"N-oleoyl methionine level, Mean",[1],PISSR
same,"N-oleoyl phenylalanine level, Mean",[1],6.88E-13
same,"N-oleoyl proline level, Mean",[1],BDL
same,"N-oleoyl serine level, Mean",[1],3.07E-10
same,"N-oleoyl tryptophan level, Mean",[1],BDL
same,"N-oleoyl tyrosine level, Mean",[1],1.89E-13
same,"N-oleoyl valine level, Mean",[1],PISSR
same,"N-palmitoyl GABA level, Mean",[1],6.6E-12
same,"N-palmitoyl alanine level, Mean",[1],6.9E-12
same,"N-palmitoyl ethanolamine level, Mean",[1],6.24E-11
same,"N-palmitoyl glycine level, Mean",[1],3.58E-12
same,"N-palmitoyl leucine level, Mean",[1],1.26E-12
same,"N-palmitoyl methionine level, Mean",[1],9.4E-13
same,"N-palmitoyl phenylalanine level, Mean",[1],1.3E-12
same,"N-palmitoyl proline level, Mean",[1],BDL
same,"N-palmitoyl serine level, Mean",[1],3.09E-11
same,"N-palmitoyl tryptophan level, Mean",[1],BDL
same,"N-palmitoyl tyrosine level, Mean",[1],4.12E-13
same,"N-palmitoyl valine level, Mean",[1],2.32E-13
same,"N-stearoyl GABA level, Mean",[1],7.69E-12
same,"N-stearoyl alanine level, Mean",[1],9.94E-13
same,"N-stearoyl ethanolamine level, Mean",[1],3.67E-11
same,"N-stearoyl glycine level, Mean",[1],5.58E-13
same,"N-stearoyl leucine level, Mean",[1],9.96E-13
same,"N-stearoyl methionine level, Mean",[1],5.57E-13
same,"N-stearoyl phenylalanine level, Mean",[1],1.28E-12
same,"N-stearoyl proline level, Mean",[1],BDL
same,"N-stearoyl serine level, Mean",[1],5.5E-11
same,"N-stearoyl tryptophan level, Mean",[1],BDL
same,"N-stearoyl tyrosine level, Mean",[1],1.01E-13
same,"Oleic acid level, Mean",[1],2.82E-10
same,"PGE2 level, Mean",[1],7.14E-11
same,"PhosphoLEA level, Mean",[1],1.12E-11
same,"THC level, Mean",[1],BDL
same,"2-arachidonoyl glycerol level, Mean",[2],6.64E-10
same,"2-linoleoyl glycerol level, Mean",[2],5.43E-11
same,"2-oleoyl glycerol level, Mean",[2],7.45E-10
same,"2-palmitoyl glycerol level, Mean",[2],7.93E-10
same,"6-ketoPGF1α level, Mean",[2],1.71E-11
same,"Arachidonic acid level, Mean",[2],3.33E-09
same,"Linoleic acid level, Mean",[2],2.5E-10
same,"N- stearoyl valine level, Mean",[2],1.41E-12
same,"N-arachidonoyl GABA level, Mean",[2],3.93E-11
same,"N-arachidonoyl alanine level, Mean",[2],5.15E-12
same,"N-arachidonoyl ethanolamine level, Mean",[2],5.6E-12
same,"N-arachidonoyl glycine level, Mean",[2],5.39E-12
same,"N-arachidonoyl phenylalanine level, Mean",[2],7.34E-13
same,"N-arachidonoyl taurine level, Mean",[2],1.56E-11
same,"N-docosahexaenoyl GABA level, Mean",[2],5.25E-12
same,"N-docosahexaenoyl ethanolamine level, Mean",[2],1.68E-11
same,"N-docosahexaenoyl glycine level, Mean",[2],4.59E-13
same,"N-linoleoyl alanine level, Mean",[2],4.26E-12
same,"N-linoleoyl ethanolamine level, Mean",[2],1.7E-11
same,"N-linoleoyl glycine level, Mean",[2],3.45E-13
same,"N-linoleoyl serine level, Mean",[2],6.26E-11
same,"N-oleoyl GABA level, Mean",[2],2.02E-11
same,"N-oleoyl alanine level, Mean",[2],1.14E-11
same,"N-oleoyl ethanolamine level, Mean",[2],1.79E-10
same,"N-oleoyl glycine level, Mean",[2],3.5E-12
same,"N-oleoyl leucine level, Mean",[2],3.49E-13
same,"N-oleoyl phenylalanine level, Mean",[2],1.8E-12
same,"N-oleoyl serine level, Mean",[2],2.72E-10
same,"N-oleoyl valine level, Mean",[2],3.31E-13
same,"N-palmitoyl GABA level, Mean",[2],3.44E-11
same,"N-palmitoyl alanine level, Mean",[2],3.03E-11
same,"N-palmitoyl ethanolamine level, Mean",[2],4.49E-11
same,"N-palmitoyl glycine level, Mean",[2],1.16E-11
same,"N-palmitoyl leucine level, Mean",[2],2.12E-12
same,"N-palmitoyl methionine level, Mean",[2],5.5E-12
same,"N-palmitoyl phenylalanine level, Mean",[2],4.4E-12
same,"N-palmitoyl serine level, Mean",[2],1.07E-11
same,"N-palmitoyl tyrosine level, Mean",[2],1.52E-12
same,"N-palmitoyl valine level, Mean",[2],1.65E-12
same,"N-stearoyl GABA level, Mean",[2],3.84E-11
same,"N-stearoyl alanine level, Mean",[2],1.89E-11
same,"N-stearoyl ethanolamine level, Mean",[2],3.64E-11
same,"N-stearoyl glycine level, Mean",[2],8.37E-12
